# Measurements: patent publication US8648078B2, “PLK inhibitor salts” (Nerviano Medical Sciences S.R.L., priority 2009, dated 2014)
# How the values were obtained:
# Type in all cases: physicochemical
# [1] = Solid state stability on storage at stressed temperature and humidity; conditions: storage at 40° C./75% RH
# [2] = Hygroscopicity test by Dynamic Vapour Sorption (DVS); conditions: for Water uptake: 25° C.
# Description: The apparatus is a “controlled atmosphere microbalance” where the weighed sample is exposed to programmed variations of the relative humidity (RH) at a constant and controlled temperature. The measured parameters (weight, time and RH), reported in Excel worksheets, allow obtaining hygroscopicity curves over the tested RH range. Sorption/desorption cycles between 0% and 90% RH can be performed at controlled temperature of 25° C. Progressive variations of RH are of 10%; they are operated by the software at the equilibration of the sample weight. This condition can be defined at a constant rate of percent weight variation e.g. 0.005%/min. The experimental results are reported both as in the DVS Isotherm Reports and Isotherm Plots.
# [3] = Aqueous solubility of compound 937 salts and free base (excess solid stirred in water, filtered, HPLC); conditions: thermodynamic from solid, RT, stirred 4 hours, excess solid (target 10 mg/ml)
# From the text: The obtained preparations have been filtered and analyzed by means of HPLC.
# [4] = Solubility of compound 937 in early formulation vehicles / as in situ salt; conditions: aqueous with cosolvent or surfactant or cyclodextrin; in 10% polysorbate 80 in 5% dextrose solution
compound,measurement,setting,value
CN1CCN(c2ccc(OC(F)(F)F)c(Nc3ncc4c(n3)-c3c(c(C(N)=O)nn3CCO)CC4)c2)CC1.O=C(O)/C=C\C(=O)O [compound 937 maleate salt form II],solid form stability (in words),[1],undergoes conversion to form I
same,hygroscopicity (in words),[2],moderately hygroscopic
CN1CCN(c2ccc(OC(F)(F)F)c(Nc3ncc4c(n3)-c3c(c(C(N)=O)nn3CCO)CC4)c2)CC1.O=C(O)CCC(=O)O [compound 937 succinate salt form II],solid form stability (in words),[1],stable
CN1CCN(c2ccc(OC(F)(F)F)c(Nc3ncc4c(n3)-c3c(c(C(N)=O)nn3CCO)CC4)c2)CC1.O=C(O)/C=C/C(=O)O [compound 937 fumarate salt],Water uptake,[2]; 90% RH,1.6%
same,Water uptake,"[2]; DVS sorption ramp, 0.0% RH",0.0%
same,Water uptake,"[2]; DVS sorption ramp, 10.0% RH",0.1%
same,Water uptake,"[2]; DVS sorption ramp, 20.0% RH",0.3%
same,Water uptake,"[2]; DVS sorption ramp, 30.0% RH",0.4%
same,Water uptake,"[2]; DVS sorption ramp, 40.0% RH",0.6%
same,Water uptake,"[2]; DVS sorption ramp, 50.0% RH",0.9%
same,Water uptake,"[2]; DVS sorption ramp, 60.0% RH",1.2%
same,Water uptake,"[2]; DVS sorption ramp, 70.0% RH",1.4%
same,Water uptake,"[2]; DVS sorption ramp, 80.0% RH",1.5%
CN1CCN(c2ccc(OC(F)(F)F)c(Nc3ncc4c(n3)-c3c(c(C(N)=O)nn3CCO)CC4)c2)CC1.O=C(O)C[C@H](O)C(=O)O [compound 937 L-malate salt],hygroscopicity (in words),[2],moderately hygroscopic
same,Water uptake,[2]; 90% RH,about 4.7%
"CN1CCN(c2ccc(OC(F)(F)F)c(Nc3ncc4c(n3)-c3c(c(C(N)=O)nn3CCO)CC4)c2)CC1 [compound 937, 1-(2-hydroxy-ethyl)-8-[5-(4-methyl-piperazin-1-yl)-2-trifluoromethoxy-phenylamino]-4,5-dihydro-1H-pyrazolo[4,3-h]quinazoline-3-carboxamide]",solubility at 4 h,[3],< 100 µg/mL
same,solubility,[4],~4000 µg/mL
CN1CCN(c2ccc(OC(F)(F)F)c(Nc3ncc4c(n3)-c3c(c(C(N)=O)nn3CCO)CC4)c2)CC1.O=C(O)C(O)C(O)C(=O)O [compound 937 L-tartrate salt],hygroscopicity (in words),[2],moderately hygroscopic
same,Water uptake,[2]; 90% RH,~5.8%
